Measured values reported in patent US20110009379A1, “INDOLINONE COMPOUND” (ASTELLAS PHARMA INC., priority 2008, published 2011).

What was measured:
gastric emptying of rats = test: Activity to gastric emptying of TRPA1 agonist (phenol red, rats); format: in vivo; conditions: Rattus norvegicus; male wistar rats, oral administration, versus control animals; read-out: ED50 (amount which suppresses 50% of gastric emptying)
Excerpt: When EC cell is stimulated by content of a gastrointestinal tract, 5-HT is secreted. The secreted 5-HT promotes the secretion or motility through a 5-HT receptor present in intestinal nerve plexus or gastrointestinal smooth muscle. The secreted 5-HT is instantly taken into a cell by its specific transporter, and is metabolized by […]. Thus, while it is considerably difficult to directly measure the secreted 5-HT concentration, it has been known that gastric emptying is delayed as a physiological activity through 5-HT in rodents. In order to verify in vivo activity through 5-HT of the compound to be tested, activity to gastric emptying of rats by various TRPA1 agonists was studied.
In the experiment, male wistar rats (body weight 290 to 360 g) were used. The animals were purchased from Japan SLC (Shizuoka). The animals were allowed to drink water freely under a constitutive environment.
5 minutes after the medicine was orally administered, 0.05% phenol red solution (1.5 mL) was orally administered. After 15 minutes, rats were put painlessly to death by cervical vertebral dislocation, their stomachs were exenterated, and phenol red was eluted with 0.1M aqueous NaOH solution (5 mL) from the exenterated stomachs. 20% aqueous trichloroacetic acid solution (0.1 mL) was added to the NaOH solution (0.5 mL), followed by stirring and centrifugation at 15,000 rpm, at 4° C., for 10 minutes. 0.5M aqueous NaOH solution (0.2 mL) was added to the supernatant (0.05 mL), followed by stirring, and absorbance at 560 nm was measured using an absorption spectrometer (spectrometer spectramax M2; Molecular Devices, CA, USA).
A gastric emptying was calculated by the following calculating formula.
Gastric emptying (%)=100−(A/B)×100
A: amount of phenol red remaining in stomach
B: amount of phenol red remaining in stomach just after administering phenol red
ED50 values (amount of the compound to be tested which suppresses 50% of gastric emptying, with respect to the control animals without administering the compound to be tested) of some of the compounds of the formula (I) are shown in Table 2. In this connection, comparative compound 1 and comparative compound 2 are (3E)-1-methyl-3-(2-oxopropyridene)-1,3-dihydro-2H-indol-2-one, and (3E)-3-(2-oxopropyridene)-1-prop-2-in-1-yl-1,3-dihydro-2H-indol-2-one described in Non Patent Document 4 above, and has the following chemical structures, respectively.

human TRPA1 = biological target: T1, human TRPA1 (Homo sapiens, UniProt O75762, K186N/R3C/R58T); test: Measurement of TRPA1 activation activity (intracellular calcium, FLIPR, HEK293 cells stably expressing human TRPA1); format: cell-based; conditions: change of intracellular calcium concentration
T1 construct: expressed in transfected cells; pcDNA3.1(+) vector)
T1 sequence (O75762 whole entry R3C/R58T/K186N): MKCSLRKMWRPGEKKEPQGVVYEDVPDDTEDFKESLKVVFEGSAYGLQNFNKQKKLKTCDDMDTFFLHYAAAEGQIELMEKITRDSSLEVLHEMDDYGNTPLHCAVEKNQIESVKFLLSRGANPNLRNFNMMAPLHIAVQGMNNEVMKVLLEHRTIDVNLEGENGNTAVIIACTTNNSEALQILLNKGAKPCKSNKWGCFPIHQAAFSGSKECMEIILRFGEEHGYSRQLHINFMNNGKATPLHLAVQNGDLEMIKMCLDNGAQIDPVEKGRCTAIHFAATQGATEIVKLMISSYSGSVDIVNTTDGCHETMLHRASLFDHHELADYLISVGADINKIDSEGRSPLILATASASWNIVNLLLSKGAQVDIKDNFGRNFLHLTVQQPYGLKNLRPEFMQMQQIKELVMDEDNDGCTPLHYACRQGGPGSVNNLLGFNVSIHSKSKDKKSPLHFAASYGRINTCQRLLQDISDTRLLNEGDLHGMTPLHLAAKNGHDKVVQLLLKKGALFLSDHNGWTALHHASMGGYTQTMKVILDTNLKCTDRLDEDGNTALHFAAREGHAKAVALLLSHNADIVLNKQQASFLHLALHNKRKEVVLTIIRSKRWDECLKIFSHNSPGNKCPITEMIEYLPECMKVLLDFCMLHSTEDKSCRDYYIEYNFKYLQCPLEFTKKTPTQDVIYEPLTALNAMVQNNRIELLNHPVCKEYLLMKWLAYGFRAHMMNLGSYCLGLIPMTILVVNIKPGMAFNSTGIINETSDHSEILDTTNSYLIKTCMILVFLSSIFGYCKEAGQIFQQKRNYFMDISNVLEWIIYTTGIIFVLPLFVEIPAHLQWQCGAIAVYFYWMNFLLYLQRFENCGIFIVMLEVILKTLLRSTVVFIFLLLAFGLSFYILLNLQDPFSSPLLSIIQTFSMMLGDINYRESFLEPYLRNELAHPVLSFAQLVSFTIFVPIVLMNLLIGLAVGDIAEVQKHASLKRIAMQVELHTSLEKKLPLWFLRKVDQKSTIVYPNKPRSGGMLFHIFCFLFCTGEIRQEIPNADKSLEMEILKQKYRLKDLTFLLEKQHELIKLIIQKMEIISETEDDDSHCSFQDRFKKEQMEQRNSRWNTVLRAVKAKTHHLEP
Procedure: 10 ng of Human brain mRNA (Clontech Co.) was treated with DNase, and then was reverse transcribed using kit for reverse transcription-polymerase chain reaction (RT-PCR) (SUPERSCRIPT First-Strand Synthesis System for RT-PCR; Invitrogen Co.) to synthesize the first strand cDNA. PCR using a hot start method was performed using the first strand cDNA as a template and Taq DNA polymerase (LA Taq DNA polymerase; TAKARA SHUZO). The PCR was performed using oligonucleotides consisting of the nucleotide sequences, represented by sequence number 2 as a sense primer and sequence number 3 as an antisense primer, in which firstly, heat denaturation was performed at 98° C. (1 minute), and then a cycle of 98° C. (15 seconds)/56° C. (30 seconds)/72° C. (5 minutes) was repeated 35 times. As a result, a DNA fragment of about 3.3 kbp was amplified.
The DNA fragment was cloned to pCR-TOPO vector using a cloning kit (TOPO XL PCR Cloning Kit; Invitrogen). The obtained plasmid DNA was digested with restriction enzymes KpnI and HindIII, and then was cloned using plasmid pcDNA 3.1(+)(Invitrogen). In this connection, the plasmid pcDNA 3.1(+) has a promoter sequence derived from cytemegalovirus, and can be used in order to express a protein in animal cells.
The nucleotide sequences of the obtained clones were analyzed using DNA sequencer (ABI3700 DNA Sequencer; Applied Biosystems) by dideoxyterminator method, and the nucleotide sequence represented by sequence number 1 was obtained. Furthermore, when these sequences were translated to amino acid sequences, the amino acid sequence represented by sequence number 1 was obtained.
After constructing the expression vector of the human TRPA1 gene, selection by G418 was performed from the HEK293 cells which temporarily expressed TRPA1 by transfection operation to obtain cells stably expressing TRPA1. The above operation was performed according to known methods (experimental medicine supplementary volume, “Cultivation Cell Experimental Methods for Molecular Biology Study” published by Toshio Kuroki, Namho Hue and Kazuhiro Chida, 1995, Yodosha).
In order to measure the change of the intracellular calcium concentration in the cells stably expressing the human TRPA1, the change of the intracellular calcium concentration when a compound to be tested was added was measured using FLIPR (Molecular Device).
In order to measure the change of the intracellular calcium concentration with FLIPR, the following pretreatment was performed. First of all, assay buffer was prepared which was for adding fluorescent pigment Fluo4-AM (DOJIN) to the cells or washing the cells just before performing FLIPR assay. To a solution (hereinafter, HBSS/HEPES solution) where 20 mL of 1M HEPES (pH 7.4; Invitrogen) was added to 1000 mL of a physiological saline buffer (Hank's Balanced Salt Solution; HBSS) (Invitrogen), was added 10 mL of a solution where 710 mg of probenecid (Sigma) was dissolved into 5 mL of 1M aqueous NaOH solution and 5 mL of HBSS/HEPES solution was further added and mixed, and the assay buffer was thus prepared. Then, 50 μg of Fluo4-AM was dissolved into 22 μL of DMSO (DOJIN), the same amount of 20% pluronic acid (Molecular Probes) was added thereto and mixed, and the mixture was added to the 10.6 mL of the assay buffer where 105 μL of fetal bovine serum was added, to prepare a fluorescent pigment solution. The medium of the cells stably expressing TRPA1 was removed, 100 μL per well of the fluorescent pigment solution was dispensed immediately, followed by cultivation in a CO2 cultivator for 1 hour, and the fluorescent pigment was soaked in the cells. The cells after cultivation were washed using the assay buffer, followed by being set in FLIPR. Furthermore, a test sample, which was added to the cells stably expressing TRPA1, was prepared by using the assay buffer, and at the same time, was set in FLIPR. […]

Cytochrome P450(2D6) = Cytochrome P450(2D6) (Homo sapiens, UniProt P10635); test: Cytochrome P450(2D6) enzyme inhibition test; format: in vitro ADME; conditions: CYP2D6, fluorescent substrate 1.5 μmol/L, 37° C., 20 minutes
Cytochrome P450(2D6), sequence (P10635 whole entry): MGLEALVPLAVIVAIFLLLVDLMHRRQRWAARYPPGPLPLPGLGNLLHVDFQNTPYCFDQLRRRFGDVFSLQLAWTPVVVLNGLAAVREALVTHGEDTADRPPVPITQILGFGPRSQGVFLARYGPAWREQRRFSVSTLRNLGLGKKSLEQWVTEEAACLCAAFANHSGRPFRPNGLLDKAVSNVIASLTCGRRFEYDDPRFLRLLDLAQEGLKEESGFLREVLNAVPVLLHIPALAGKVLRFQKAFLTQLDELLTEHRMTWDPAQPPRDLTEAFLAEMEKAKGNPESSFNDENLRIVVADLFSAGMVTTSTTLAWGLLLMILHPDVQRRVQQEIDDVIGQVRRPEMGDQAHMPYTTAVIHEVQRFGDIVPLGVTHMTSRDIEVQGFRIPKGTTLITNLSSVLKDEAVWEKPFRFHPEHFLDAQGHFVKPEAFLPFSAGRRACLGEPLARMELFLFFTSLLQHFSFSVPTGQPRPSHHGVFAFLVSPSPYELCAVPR
Procedure: The experiment was performed in accordance with the method of Crespi et al. (Analytical Biochemistry, 248, 188-190, 1997).
As a substrate, 3-[2-(N,N-diethyl-N-methylamino)ethyl]-7-methoxy-4-methyl coumarine (1.5 μmol/L) a compound to be tested (3.1×10^−7 to 2×10^−5 M) and an enzyme (2.5×10^−8 M) were incubated at 37° C. for 20 minutes in total of […] of 100 mM phosphorous buffer (pH=7.4) including 8.2 mM NADP+, 0.41 mM glucose-6-phosphate, 0.41 mM MgCl2 and 0.4 Units/mL glucose-6-phosphate dehydrogenase, using 96 well plates. Then, 0.5 M aqueous 2-amino-2-hydroxymethyl-1,3-propandiol solution containing 80% acetonitrile was added to stop the reaction, fluorescence intensity (excitation wavelength; 390 nm, fluorescent wavelength; 460 nm) was measured with a fluorescent plate reader. An inhibition ratio was calculated with the following formula, and the test compound concentration when the inhibition ratio is 50% (IC50) was obtained.
C1: fluorescence intensity in the presence of the test compound and enzyme at know concentrations, and the substrate
C0: fluorescence intensity in the presence of the enzyme and substrate, without the test compound
B1: fluorescence intensity of blank well

| Compound | ED50 (gastric emptying of rats) [mg/kg] | melting point [°C] | also measured |
| --- | --- | --- | --- |
| CC(C)CN1C(=O)/C(=C/C(=O)O)c2cccc(F)c21 [Example 1, (2E)-(7-fluoro-1-isobutyl-2-oxo-1,2-dihydro-3H-indol-3-ylidene)acetic acid] | 0.13 |  | EC50 (human TRPA1): 4.27 µM; IC50 (Cytochrome P450(2D6)): > 20 µM |
| O=C(O)/C=C1/C(=O)N(Cc2ccccc2)c2c(F)cccc21 [Example 18, (2E)-(1-benzyl-7-fluoro-2-oxo-1,2-dihydro-3H-indol-3-ylidene)acetic acid] | 3.6 | 168 to 170 |  |
| NC(=O)/C=C1/C(=O)N(Cc2ccccc2)c2ccccc21 [Example 20] | 4.4 |  |  |
| CC(C)(C)CN1C(=O)/C(=C/C(=O)O)c2ccccc21 [Example 25] | 0.31 |  |  |
| NC(=O)/C=C1/C(=O)N(CC2CCCC2)c2c(F)cccc21 [Example 29] |  |  | EC50 (human TRPA1): 0.66 µM |
| O=C(/C=C1/C(=O)N(CC2CCCC2)c2c(F)cccc21)N1CCCC1 [Example 30] | 0.42 |  |  |
| O=C(/C=C1/C(=O)N(CC2CCCC2)c2c(F)cccc21)N1CCC1 [Example 33] |  |  | EC50 (human TRPA1): 1.3 µM |
| CCC(CC)CN1C(=O)/C(=C/C(=O)O)c2cccc(F)c21 [Example 36] | 0.069 |  |  |
| O=C(O)/C=C1/C(=O)N(CC2CC2)c2c(F)cccc21 [Example 37, (2E)-[1-(cyclopropylmethyl)-7-fluoro-2-oxo-1,2-dihydro-3H-indol-3-ylidene]acetic acid] |  | 171 to 173 | IC50 (Cytochrome P450(2D6)): > 50 µM |
| COc1cccc(CN2C(=O)/C(=C/C(=O)O)c3cccc(Cl)c32)c1 [Example 39] | 0.24 |  |  |
| O=C(/C=C1/C(=O)N(CC2CCCC2)c2c(F)cccc21)N1CCOCC1 [Example 40] | 0.59 |  |  |
| CN(C)C(=O)/C=C1/C(=O)N(CC2CCCC2)c2c(F)cccc21 [Example 43, (2E)-2-[1-(cyclopentylmethyl)-7-fluoro-2-oxo-1,2-dihydro-3H-indol-3-ylidene]-N,N-dimethylacetamide] |  | 51 to 53 | EC50 (human TRPA1): 3.76 µM; IC50 (Cytochrome P450(2D6)): > 25 µM |
| CC[C@H](C)CN1C(=O)/C(=C/C(=O)O)c2cccc(F)c21 [Example 47, (2E)-{7-fluoro-1-[(2S)-2-methylbutyl]-2-oxo-1,2-dihydro-3H-indol-3-ylidene}acetic acid] | 0.61 | 137 to 139 | EC50 (human TRPA1): 1.01 µM |
| CC(C)CCN1C(=O)/C(=C/C(=O)O)c2cccc(F)c21 [Example 49, (2E)-[7-fluoro-1-(3-methylbutyl)-2-oxo-1,2-dihydro-3H-indol-3-ylidene]acetic acid] |  | 142 to 144 | EC50 (human TRPA1): 0.83 µM |
| CN(C)C(=O)/C=C1/C(=O)N(CC2CCCCC2)c2ccccc21 [Example 59, (2E)-2-[1-(cyclohexylmethyl)-2-oxo-1,2-dihydro-3H-indol-3-ylidene]-N,N-dimethylacetamide] |  | 80 to 82 |  |
| O=C(/C=C1/C(=O)N(CC2CCCCC2)c2ccccc21)N1CCC1 [Example 61, (3E)-3-(2-azetidin-1-yl-2-oxoethylidene)-1-(cyclohexylmethyl)-1,3-dihydro-2H-indol-2-one] |  | 163 to 165 |  |
| O=C(/C=C1/C(=O)N(CC2CCCC2)c2ccccc21)N1CCC1 [Example 62, (3E)-3-(2-azetidin-1-yl-2-oxoethylidene)-1-(cyclopentylmethyl)-1,3-dihydro-2H-indol-2-one] |  | 111 to 113 |  |
| CCC(CC)CN1C(=O)/C(=C/C(=O)O)c2ccccc21 [Example 63, (2E)-[1-(2-ethylbutyl)-2-oxo-1,2-dihydro-3H-indol-3-ylidene]acetic acid] |  | 147 to 149 |  |
| CCC(CC)CN1C(=O)/C(=C/C(=O)N2CCCC2)c2ccccc21 [Example 64, (3E)-1-(2-ethylbutyl)-3-(2-oxo-2-pyrrolidin-1-ylethylidene)-1,3-dihydro-2H-indol-2-one] |  | 71 to 73 |  |
| CCC(CC)CN1C(=O)/C(=C/C(=O)N2CCC2)c2ccccc21 [Example 65, (3E)-3-(2-azetidin-1-yl-2-oxoethylidene)-1-(2-ethylbutyl)-1,3-dihydro-2H-indol-2-one] |  | 116 to 118 |  |
| O=C(/C=C1/C(=O)N(CC2CCC2)c2ccccc21)N1CCC1 [Example 66, (3E)-3-(2-azetidin-1-yl-2-oxoethylidene)-1-(cyclobutylmethyl)-1,3-dihydro-2H-indol-2-one] |  | 133 to 135 |  |
| O=C(/C=C1/C(=O)N(CC2CCC2)c2ccccc21)N1CCCC1 [Example 67, (3E)-1-(cyclobutylmethyl)-3-(2-oxo-2-pyrrolidin-1-ylethylidene)-1,3-dihydro-2H-indol-2-one] |  | 108 to 110 |  |
| C#CCN1C(=O)/C(=C/C(C)=O)c2ccccc21 [comparative compound 2, (3E)-3-(2-oxopropyridene)-1-prop-2-in-1-yl-1,3-dihydro-2H-indol-2-one, reference compound] | 8.8 |  |  |
